Results taken from publication PMC9220410, “Antiamoebic Properties of Laboratory and Clinically Used Drugs against Naegleria fowleri and Balamuthia mandrillaris” (Antibiotics, 2022).

Experiments:
N. fowleri trophozoites = assay: Amoebicidal assay against N. fowleri trophozoites (Trypan blue); type: cell-based, Naegleria fowleri; conditions: for minimal effective concentration / EC50: Naegleria fowleri; for minimal effective concentration: compared to solvent control, p < 0.05, 24 h, read-out: Lowest concentration showing significant amoebicidal activity against N. fowleri; for EC50: trophozoites, 24 h, Trypan blue, read-out: Half maximal effective concentration (EC50), N. fowleri
Procedure: (§1) Amoebicidal assays were performed as previously described. Briefly, 5 × 10^5 amoebae (N. fowleri and B. mandrillaris cells) were incubated with drugs and/or solvents in 24-well plates in RPMI-1640. Amoebae were incubated with RPMI-1640 for negative controls while DMSO and ethanol were used as solvent control. For the positive control, the anti-amoebic drug, 100 μM miltefosine was used. Plates were incubated at 37 °C and 5% CO2 for 24 h. Next, 0.1% Trypan blue was added to each well. […] The number of live cells (i.e., unstained) was counted using a haemocytometer to determine amoebicidal effects of various compounds. The data are representative of the mean ± standard error of several experiments performed in duplicate.
(§2) Figure 1 The amoebicidal activities of compounds against N. fowleri trophozoites. N. fowleri trophozoites were incubated with various concentrations of compounds for 24 h and trophozoites viability was determined using Trypan blue. Percentage amoebicidal activity was calculated by: [((RPMI cell count − cell count for sample)/RPMI cell count) × 100)]. The activities of solvents alone were negated from the activities of the compounds. The data is presented as the mean ± standard error (*: p < 0.05, **: p < 0.01, ***: p < 0.001 using student t-test; two tailed distribution).

N. fowleri cysts = assay: Excystation assay, N. fowleri cysts; type: cell-based, Naegleria fowleri; conditions: Naegleria fowleri; 100 μM, after negating effects of solvent alone; read-out: Inhibition of excystation of N. fowleri
Procedure: (§3) Briefly, 5 × 10^5 amoebae cysts (N. fowleri and B. mandrillaris cells) were incubated with 100 μM drugs and/or solvent in 24-well plates containing RPMI-1640 on HeLa monolayers at 37 °C and 5% CO2 until around 75% of the cysts in RPMI-1640 alone have excysted. The RPMI-1640 alone was used as a negative control while DMSO and ethanol were used as a solvent control and 100 μM miltefosine was used as positive control. Live trophozoites (amoebae that excysted) were then quantified by counting live (unstained) cells, after addition of 0.1% Trypan blue to each well, using a haemocytometer. Percentage inhibition is defined as: [(Number of trophozoites in untreated well − Number of trophozoites in treated well)/Number of trophozoites in untreated well)] × 100. The data are representative of the mean ± standard error of several independent experiments performed in duplicate.
(§4) Figure 3 (A) Inhibition of excystation of N. fowleri cysts. N. fowleri cysts were incubated with 100 μM drugs and/or solvent in 24-well plates containing RPMI-1640 on HeLa monolayers for 24 h and number of viable trophozoites were then enumerated. Percentage inhibition of excystation was calculated by: [((RPMI trophozoite cell count − trophozoite cell count for sample)/RPMI trophozoite cell count) × 100)]. The activities of solvents alone were negated from the activities of the compounds. The data is presented as the mean ± standard error (*: p ˂ 0.05, **: p < 0.01, ***: p < 0.001 using student t-test; two tailed distribution). (B) Inhibition of excystation of B. mandrillaris cysts. B. mandrillaris cysts were incubated with 100 μM drugs and/or solvent in 24-well plates containing RPMI-1640 on HeLa monolayers for 24 h and number of viable trophozoites were then enumerated. Percentage inhibition of excystation was calculated by: [((RPMI trophozoite cell count − trophozoite cell count for sample)/RPMI trophozoite cell count) × 100)]. The activities of solvents alone were negated from the activities of the compounds. The data is presented as the mean ± standard error (*: p ˂ 0.05, **: p < 0.01, ***: p < 0.001 using student t-test; two tailed distribution).

HaCaT cells = type: cell-based, human; conditions: LDH release, 24 h, concentration not given
Procedure: Cytotoxic effects of the drugs were determined as previously described^21. Briefly, the cytotoxic activity of the drugs was investigated against HaCaT cells. […] The LDH assay protocol is based on an enzymatic reaction, i.e., LDH released from the cell oxidizes lactate to generate NADH, which then reacts with water-soluble tetrazolium salt (WST) to generate a yellow color. The intensity of the generated color correlates directly with the number of lyzed cells. Following this, 1% Triton X-100 was added to the positive control well and incubated the plate for 60 min at 37 °C. For negative control, human cells were grown in RPMI alone well. Then, an equal amount of cells supernatant (comprising LDH enzyme) from each well was combined with equal amount of LDH kit reagents and cytotoxicity was determined in proportion to LDH released from human cells using a spectrophotometer at 490 nm. The percentage LDH released was determined as follows: [(Absorbance of sample − Absorbance of control)/(Absorbance for total LDH release − Absorbance of control)] × 100 = percentage cytotoxicity.
Figure 4 Cytotoxic effects of compounds against human cells are depicted. Various concentrations of compounds were incubated with human cells for 24 h at 37 °C and 5% CO2. RPMI alone was used as negative control and triton X-100 was used as positive control. Data are presented as the mean ± standard error of 2 experiments conducted in duplicates.

B. mandrillaris cysts = assay: Excystation assay, B. mandrillaris cysts; type: cell-based; conditions: Balamuthia mandrillaris; 100 μM, after negating effects of solvent alone; read-out: Inhibition of excystation of B. mandrillaris
Procedure: as §3, §4

[1] = tested on: B. mandrillaris trophozoites; assay: Amoebicidal assay against B. mandrillaris trophozoites (Trypan blue); type: cell-based, Balamuthia mandrillaris; conditions: for EC50: Balamuthia mandrillaris, trophozoites, 24 h, Trypan blue, read-out: Half maximal effective concentration (EC50), B. mandrillaris
Procedure: as §1
as §2, with “Figure 2” for “Figure 1”, “against B. mandrillaris” for “against N. fowleri”, “trophozoites. B. mandrillaris” for “trophozoites. N. fowleri”

[2] = parameters: method as in PMID 29206032, PMID 32548431; conditions: ref [24],[25],[26]; cited from earlier work
[3] = summary in discussion, concentration not given

| Structure (SMILES) | minimal effective concentration (N. fowleri trophozoites) | EC50 (N. fowleri trophozoites) | Amoebicidal activity against N. fowleri (N. fowleri trophozoites; [3]) | inhibition at 100 µM (N. fowleri cysts) | Cytotoxicity against HaCaT cells (HaCaT cells) | inhibition at 100 µM (B. mandrillaris cysts) | EC50 [1] | Amoebicidal activity against B. mandrillaris [1, 3] | BBB Permeability [2] |
| --- | --- | --- | --- | --- | --- | --- | --- | --- | --- |
| CC(C)C1CCC(C(=O)N[C@H](Cc2ccccc2)C(=O)O)CC1 (stereo partly drawn) [Nateglinide, (2R)-3-phenyl-2-[(4-propan-2-ylcyclohexanecarbonyl)amino]propanoic acid] | ≥ 6.25 µM | 44.4 µM | 64% | 42% | 2% | 57% | 136 µM | 39% | Positive |
| CCOc1cc(CC(=O)N[C@@H](CC(C)C)c2ccccc2N2CCCCC2)ccc1C(=O)O [Repaglinide, 2-ethoxy-4-[2-[[(1S)-3-methyl-1-(2-piperidin-1-ylphenyl)butyl]amino]-2-oxoethyl]benzoic acid] | 50 µM | 14.3 µM | – | 49% | did not exhibit any cytotoxicity | < 10% | 31.8 µM | – | Negative |
